From patent US20090291945A1, “CYSTEINE PROTEASE INHIBITORS” (Teijin Pharma Limited, priority 2008, published 2009)

Legend:
[1] = Metabolic stability test using human liver microsome; type: in vitro ADME; details: NADPH, 37° C., 25 minutes versus 0 minute, LC/MS peak area
Procedure: For the compounds synthesized according to the method of the above Examples and the compounds of formula (B) (the compounds disclosed in WO2002/070517), the metabolic stability test using the human liver microsome was performed and the residual rate of each compound was calculated.
To a human liver microsome solution (950 μL) was added a test compound solution (10 μL, 100 μM, acetonitrile solution) on an ice bath and the solution was divided into two equal parts, solution A and solution B. Note that the composition of the human liver microsome solution was as follows.
20 mg/mL protein human liver microsome (Xenotech LLC Lenexa, US): 10 μL 500 mM potassium phosphate buffer solution (pH 7.4): 200 μL 10 mM EDTA solution: 100 μL 60 mM MgCl2 solution: 50 μL 100 mM glucose-6-phosphate solution: 50 μL 100 I.U./mL glucose-6-phosphate dehydrogenase solution: 10 μL purified water: 530 μL
To the solution A (480 μL) was added acetonitrile (500 μL) on an ice bath, and then 25 mM NADPH solution (20 μL) was added. After vortexing, the mixture was centrifuged (3,000 rpm) at 4° C. for 10 minutes, and the supernatant was taken as the sample at the reaction time of 0 minute.
To the solution B (480 μL) was added 25 mM NADPH solution (20 μL). The mixture was incubated at 37° C. for 25 minutes. The reaction was quenched with acetonitrile (500 μL) and vortexing. The mixture was centrifuged (3,000 rpm) at 4° C. for 10 minutes, and the supernatant was taken as the sample at the reaction time of 25 minutes.
LC/MS measurement was performed for the samples at the reaction time of 0 minute and the reaction time of 25 minutes. Based on the peak area of the target molecular weight in the MS measurement, the residual rate of the sample at the reaction time of 25 minutes to the sample at the reaction time of 0 minute was calculated in percentage.

cathepsin K = molecular target: T1, cathepsin K (Homo sapiens, UniProt P43235); test: Cathepsin K inhibitory activity (fluorescent substrate Z-Leu-Arg-MCA); type: biochemical; details: enzyme expressed in HEK293T; 15 min preincubation, 30 min reaction at room temperature, pH 5.5; read-out: Activity Intensity (cathepsin K inhibitory activity, pIC50 class) (converted)
T1 construct: the active enzyme was obtained as the enzyme fraction by using detergent containing lysis buffer; made in house; host or cells: HEK293T (GenHunter Corporation), transient expression; detergent lysate used as enzyme fraction
T1 sequence (P43235 115-329): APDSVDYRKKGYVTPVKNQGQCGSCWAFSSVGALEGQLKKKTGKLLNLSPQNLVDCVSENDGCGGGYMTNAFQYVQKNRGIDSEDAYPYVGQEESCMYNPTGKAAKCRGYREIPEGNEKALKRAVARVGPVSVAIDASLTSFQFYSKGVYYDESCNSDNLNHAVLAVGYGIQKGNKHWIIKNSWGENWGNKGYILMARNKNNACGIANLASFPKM
In short: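 Enzyme was HEK293T-expressed cathepsin K in pH 5.5 acetate buffer with 2 mM DTT, preincubated 15 min at room temperature with compound. Reaction started with Z-Leu-Arg-MCA (solution prepared at 10 μM), run 30 min, and AMC fluorescence read at 355/460 nm. IC50 taken from the curve of % inhibition vs DMSO.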

Row | SMILES | Residual Rate at 25 minutes (%) [1] [%] | IC50 (cathepsin K) [nM]
1 | CC(C)C[C@H](Nc1cscc1-c1ccc(N2CCNCC2)cc1)C(=O)NCCNc1ccc(OCc2ccccc2)cc1 [B, reference compound] | 0 | –
2 | CC[C@@H](CNc1ccc(OC)cc1OC)NC(=O)[C@H](CC(C)(C)F)N[C@@H](c1ccc(-c2ccc(S(C)(=O)=O)cc2)cc1)C(F)(F)F [Compound 5, (2S)—N-((1S)-1-{[(2,4-dimethoxyphenyl)amino]methyl}propyl)-2-[((1S)-2,2,2-trifluoro-1-{4-[4-(methylsulfonyl)phenyl]phenyl}ethyl)amino]-4-fluoro-4-methylpentanamide] | 0 | ≤ 3.16
3 | CC[C@@H](CNc1ccc(OC)cc1OC)NC(=O)[C@H](CC(C)(C)F)N[C@@H](c1ccccc1)C(F)(F)F [Compound 7, (2S)—N-((1S)-1-{[(2,4-dimethoxyphenyl)amino]methyl}propyl)-2-[((1S)-2,2,2-trifluoro-1-phenylethyl)amino]-4-fluoro-4-methylpentanamide] | 0 | ≤ 3.16
4 | CC[C@@H](CNc1ccc(N2CCOCC2)cc1)NC(=O)[C@H](CC(C)C)N[C@@H](c1ccc(=O)[nH]c1)C(F)(F)F [Compound 31] | 77 | ≤ 3.16
5 | CC[C@@H](CNc1ccc(N2CCOCC2)cc1)NC(=O)[C@H](CC(C)C)N[C@@H](c1ccc(F)cc1)C(F)(F)F [Compound 36] | 0 | ≤ 3.16
6 | CC[C@@H](CNc1ccc(N2CCOCC2)cc1)NC(=O)[C@H](CC(C)C)N[C@@H](c1ccc(=O)n(C)c1)C(F)(F)F [Compound 43] | 46 | ≤ 3.16
7 | CC[C@@H](CNc1ccc(-c2ccccc2)cc1)NC(=O)[C@H](CC(C)C)N[C@@H](c1ccc(OC)nc1)C(F)(F)F [Compound 46] | 65 | 31.6 to 10000
8 | COc1ccc(NC[C@H](CCS(C)(=O)=O)NC(=O)[C@H](CC(C)C)N[C@@H](c2ccc(=O)[nH]c2)C(F)(F)F)c(OC)c1 [Compound 81] | 41 | 31.6 to 10000
9 | CC(C)C[C@H](N[C@@H](c1ccccc1)C(F)(F)F)C(=O)N[C@@H](CC#N)CNc1ccc(N2CCOCC2)cc1 [Compound 93] | 63 | 3.16 to 31.6
10 | CC(C)C[C@H](N[C@@H](c1ccccc1)C(F)(F)F)C(=O)N[C@@H](CCCNC(=N)N)CNc1ccc(N2CCOCC2)cc1 [Compound 101] | 67 | ≤ 3.16
11 | CN(C)C[C@@H](CNc1ccc(N2CCOCC2)cc1)NC(=O)[C@H](CC(C)(C)F)N[C@@H](c1ccccc1)C(F)(F)F [Compound 107] | 50 | ≤ 3.16
12 | CC[C@@H](CNc1ccc(OCC(=O)O)cc1OC)NC(=O)[C@H](CC(C)(C)F)N[C@@H](c1ccccc1)C(F)(F)F [Compound 117, 2-{4-[((2S)-2-{(2S)-2-[((1S)-2,2,2-trifluoro-1-phenylethyl)amino]-4-fluoro-4-methylpentanoylamino}butyl)amino]-3-methoxyphenoxy}acetic acid] | 111 | ≤ 3.16
13 | CC[C@@H](CNc1ccc(OC2(C(=O)O)CC2)cc1OC)NC(=O)[C@H](CC(C)(C)F)N[C@@H](c1ccccc1)C(F)(F)F [Compound 118] | 76 | ≤ 3.16
14 | CC[C@@H](CNc1ccc(OCC(=O)O)cc1OC)NC(=O)[C@H](CC(C)C)N[C@@H](c1ccc(OC)nc1)C(F)(F)F [Compound 120] | 108 | ≤ 3.16
15 | CC[C@@H](CNc1ccc(OCC(=O)O)cc1OC)NC(=O)[C@H](CC(C)C)N[C@@H](c1cccnc1)C(F)(F)F [Compound 121] | 105 | 3.16 to 31.6
16 | CC[C@@H](CNc1ccc(OC2(C(=O)O)CC2)cc1OC)NC(=O)[C@H](CC(C)C)N[C@@H](Cc1ccccc1)C(F)(F)F [Compound 124] | 87 | 3.16 to 31.6
